Data on 10 compounds can be found in PubChem BioAssay (NCI).

Among the test systems are UACC-257 melanoma; NCI/ADR-RES ovarian; M14 melanoma; UACC-62 melanoma; DU-145 prostate; LOX IMVI melanoma; MCF7 breast; K-562 leukemia; U251 CNS; NCI-H23 lung; SW-620 colon; HCT-15 colon; SK-OV-3 ovarian; CCRF-CEM leukemia; A498 renal; SK-MEL-2 melanoma.
Common to all, as to experiment: NCI-60 cell line screen, 48 h

The structures appear in SMILES notation. Values joined by “and” are separate entries in the source; they are usually repeats but may differ in a detail not shown here. Equal values may be shown once.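 Cultured in 96-well plates, cells were exposed to test compound for 48 hours across five concentrations. TGI denotes the concentration required for complete inhibition of growth.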

`O=C(NC(Cc1ccccc1)P(=O)(O)c1ccccc1)OCc1ccccc1` (stereo unspecified): the TGI in the test on UACC-257 melanoma, in the test on NCI/ADR-RES ovarian, in the test on M14 melanoma, with UACC-62 melanoma, in the test on DU-145 prostate and in the test on LOX IMVI melanoma was over 100 µM in each case. For the same compound, the TGI in the test on MCF7 breast, in the test with K-562 leukemia, with U251 CNS, with NCI-H23 lung, in the test on SW-620 colon and in the test on HCT-15 colon was over 100 µM throughout. Moreover, the TGI in the test with SK-OV-3 ovarian and in the test with CCRF-CEM leukemia was over 100 µM each time.

As to `O=C1Cc2c([nH]c3cc(Br)ccc23)-c2ccccc2N1`, the TGI with M14 melanoma was 37.5 µM; in the test on UACC-62 melanoma, 49.2 µM; in the test with DU-145 prostate, 79.7 µM; with LOX IMVI melanoma, 37 µM; in the test with MCF7 breast, over 100 µM; in the test on K-562 leukemia, over 100 µM. Also, the TGI with A498 renal is 49 µM; in the test on U251 CNS it was 31.8 µM; in the test on NCI-H23 lung, over 100 µM; in the test on SW-620 colon, 52.5 µM; in the test with HCT-15 colon, 25.2 µM; in the test with SK-OV-3 ovarian, 58.8 µM. Besides, the TGI in the test with CCRF-CEM leukemia worked out at 20.2 µM.

As for `COc1ccc(-c2cc(-c3ccccc3)nc(N)n2)c(O)c1`, the TGI in the test on UACC-257 melanoma, in the test on NCI/ADR-RES ovarian, with M14 melanoma, with UACC-62 melanoma, with LOX IMVI melanoma and in the test on MCF7 breast was over 100 µM throughout. For the same compound, the TGI is over 22.9 µM in the test with K-562 leukemia; over 100 µM in the test with A498 renal; over 100 µM with U251 CNS; over 100 µM in the test with NCI-H23 lung; over 100 µM in the test on SK-MEL-2 melanoma; over 100 µM with SW-620 colon. The TGI with HCT-15 colon, with SK-OV-3 ovarian and in the test with CCRF-CEM leukemia was over 100 µM in each case.

In the case of `O=c1[nH]c(=S)c2[nH]c(=O)n(-c3ccccc3)c2[nH]1`, the TGI in the test with UACC-257 melanoma, with NCI/ADR-RES ovarian, in the test with M14 melanoma, in the test with UACC-62 melanoma, in the test with DU-145 prostate and with LOX IMVI melanoma was over 100 µM throughout. The TGI in the test with K-562 leukemia, with A498 renal, with U251 CNS, with NCI-H23 lung, in the test with SK-MEL-2 melanoma and in the test with SW-620 colon was over 100 µM in each case. In addition, in the test with HCT-15 colon, the TGI is over 100 µM.

With `CCN1CCC(O)(/C=C/c2ccc(Cl)cc2)C(C(=O)/C=C/c2ccc(Cl)cc2)C1` (stereo unspecified), the TGI was 35.5 µM in the test on UACC-257 melanoma; over 100 µM with M14 melanoma; 42.2 µM in the test with UACC-62 melanoma; 32.4 µM with LOX IMVI melanoma; over 100 µM in the test on K-562 leukemia; 34.2 µM in the test on A498 renal. Further, the TGI is 44.9 µM with U251 CNS; 45.6 µM with NCI-H23 lung; over 100 µM with SK-MEL-2 melanoma; 56.8 µM in the test on SW-620 colon; 46.4 µM in the test with HCT-15 colon; 61.7 µM in the test on SK-OV-3 ovarian. Besides, the TGI in the test on CCRF-CEM leukemia was over 100 µM.

Take `COc1cccc(-c2cc(=O)c3cc(N4CCCC4)ccc3[nH]2)c1`: the TGI is over 10 µM in the test with UACC-257 melanoma; under 0.001 µM in the test on NCI/ADR-RES ovarian; over 10 µM in the test on M14 melanoma; over 10 µM in the test on UACC-62 melanoma; under 0.001 µM in the test with DU-145 prostate; 0.00131 µM with LOX IMVI melanoma. Besides, the TGI in the test with MCF7 breast is over 4.67 µM; with K-562 leukemia it was over 8.09 µM; with NCI-H23 lung it was 0.0962 µM; with SW-620 colon it was over 10 µM; in the test on HCT-15 colon, 0.00647 µM; in the test on CCRF-CEM leukemia, over 10 µM.

Take `CSc1nc(Cl)c2c(n1)Sc1nc3ccccc3n1N=C2`: the TGI in the test with UACC-257 melanoma was over 100 µM; with NCI/ADR-RES ovarian, 55.1 µM; with M14 melanoma it was 46.3 µM; in the test with UACC-62 melanoma it was 84.3 µM; in the test with DU-145 prostate, over 100 µM; in the test on LOX IMVI melanoma it was 33.5 µM. For the same compound, the TGI in the test with K-562 leukemia is 50 µM; in the test with A498 renal, over 100 µM; in the test on U251 CNS, over 100 µM; in the test on NCI-H23 lung it was over 100 µM; in the test on SK-MEL-2 melanoma it was over 100 µM; in the test with SW-620 colon, 29.3 µM. The TGI is 36.7 µM in the test with HCT-15 colon, over 100 µM with SK-OV-3 ovarian and 46.2 µM with CCRF-CEM leukemia.

With `Cc1nc2c(s/c(=N\N)n2-c2ccccc2)c(=O)n1C`, the TGI in the test with UACC-257 melanoma, in the test with M14 melanoma, with UACC-62 melanoma, in the test on LOX IMVI melanoma, with K-562 leukemia and with A498 renal was over 100 µM each time. Also, the TGI in the test with U251 CNS, in the test on NCI-H23 lung, in the test with SK-MEL-2 melanoma, with SW-620 colon, with HCT-15 colon and in the test with SK-OV-3 ovarian was over 100 µM each time. Further, the TGI in the test on CCRF-CEM leukemia is over 100 µM.

On to `OCC(O)C(O)C(C=NNc1ncnc2ccc(Br)cc12)=NNc1ncnc2ccc(Br)cc12` (stereo unspecified), for which the TGI was over 100 µM in the test with UACC-257 melanoma; 4.91 µM and 17.4 µM with M14 melanoma; 9.82 µM with DU-145 prostate; 14.9 µM and > 100 µM in the test with LOX IMVI melanoma; 35 µM and > 100 µM with MCF7 breast; over 100 µM in the test on K-562 leukemia. The TGI in the test with A498 renal is 18 µM and 75.2 µM; in the test on U251 CNS, 67.3 µM and > 100 µM; in the test on SK-MEL-2 melanoma, 12.1 µM and > 100 µM; in the test on SW-620 colon, over 100 µM; in the test with SK-OV-3 ovarian it was over 100 µM.

As to `Cc1ccc(C(=O)C(C)N)cc1C` (stereo unspecified), the TGI in the test with UACC-257 melanoma, in the test on M14 melanoma, with UACC-62 melanoma, in the test on LOX IMVI melanoma, in the test on K-562 leukemia and with A498 renal was over 100 µM each time. The TGI in the test with U251 CNS, with NCI-H23 lung, with SK-MEL-2 melanoma, in the test with SW-620 colon, in the test with SK-OV-3 ovarian and in the test with CCRF-CEM leukemia was over 100 µM each time.
